This note sets out measurements from patent publication US11066419B2, “1H-pyrrole-2,5-dione compounds and methods of using same” (Frequency Therapeutics, Inc., priority 2016, dated 2021).

Some results are limits rather than exact numbers.

One test deals with recombinant human GSK3α (Homo sapiens, UniProt P49840). In words: In vitro enzymatic assay for inhibition of GSK3α (Kinase-Glo Max luminescence). The settings on record: 10 uM ATP, 0.1 mg/ml GSKtide, 30° C. 40 minutes, read-out: Potency Alpha. In kind it is biochemical. The method, then:
(§1) Enzymatic activities using recombinant human GSK3 using an in vitro enzymatic assay for inhibition GSK3α and GSK3β.
(§2) The assay was performed using Kinase-Glo Max luminescence kinase assay kit (Promega). It measures kinase activity by quantitating the amount of ATP remaining in solution following a kinase reaction. The luminescent signal from the assay is correlated with the amount of ATP present and is inversely correlated with the amount of kinase activity. The compounds were diluted in 10% DMSO and 5 μl of the dilution was added to a 50 μl reaction so that the final concentration of DMSO is 1% in all of reactions. The enzymatic reactions were conducted at 30° C. for 40 minutes. The 50 μl reaction mixture contains 40 mM Tris, pH 7.4, 10 mM MgCl2, 0.1 mg/ml BSA, 2 mM DTT, 0.1 mg/ml GSKtide substrate, 10 uM ATP and GSK3. After the enzymatic reaction, 50 μl of Kinase-Glo Max Luminescence kinase assay solution (Promega) was added to each reaction and incubate the plate for 15 minutes at room temperature. Luminescence signal was measured using a BioTek Synergy 2 microplate reader.
(§3) Kinase activity assays were performed in duplicate at each concentration. The luminescence data were analyzed using the computer software, Graphpad Prism. The difference between luminescence intensities in the absence of Kinase (Lut) and in the presence of Kinase (Luc) was defined as 100% activity (Lut−Luc). Using luminescence signal (Lu) in the presence of the compound, % activity was calculated as: % activity={(Lut−Lu)/(Lut−Luc)}×100%, where Lu=the luminescence intensity in the presence of the compound (all percent activities below zero were shown zero in the table).
(§4) The values of % activity versus a series of compound concentrations were then plotted using non-linear regression analysis of Sigmoidal dose-response curve generated with the equation Y=B+(T−B)/1+10((Log EC50−X)×Hill Slope), where Y=percent activity, B=minimum percent activity, T=maximum percent activity, X=logarithm of compound and Hill Slope=slope factor or Hill coefficient. The IC50 value was determined by the concentration causing a half-maximal percent activity.
(In general: Kinase-Glo measures the ATP left after a reaction by luminescence.)

The next test addresses recombinant human GSK3β (Homo sapiens, UniProt P49841). In words: In vitro enzymatic assay for inhibition of GSK3β (Kinase-Glo Max luminescence). The format is biochemical. The settings on record: 10 uM ATP, 0.1 mg/ml GSKtide, 30° C. 40 minutes, read-out: Potency Beta. The method, then: as §1, §2, §3, §4
In a further test the test system is Lgr5-positive cells. In words: Expansion of Lgr5-positive cells (cochlear stem cell expansion, 3D Matrigel culture, flow cytometry for Lgr5-GFP). The format is cell-based, mouse. The settings on record: for EC50: Mus musculus, 240 h, Lgr5-positive cell expansion, cochlear cells of neonatal Lgr5-EGFP-IRES-Cre-ER mice, 10 days in culture, read-out: Potency; for % of Cells: percentage of Lgr5-GFP-positive cells after 10 days (D10) in culture, flow cytometer. The method, then: Lgr5-EGFP-IRES-Cre-ER mice (Barker et al., 2007) (http://jaxmice.jax.org/strain/008875.html) are used to analyze the effects of small molecules on cochlear stem cell expansion.
Isolation of stem cells from the inner ear: All animal studies are conducted under an approved institutional protocol according to National Institutes of Health guidelines. For experiments with neonatal mice (postnatal days 1-3), the cochleae are dissected in HBSS and the organ of Corti are separated from the stria vascularis and the modiolus. The organs of Corti are then treated with Cell Recovery Solution (Corning) for 1 h to separate cochlear epithelium from the underlying mesenchyme. Epithelia are then collected and treated with TrypLE (Life Technologies) for 15-20 minutes at 37° C. Single cells obtained by mechanical trituration are filtered (40 μm) and suspended in Matrigel (Corning) for 3D culture.
Cells are cultured in a 1:1 mixture of DMEM and F12, supplemented with Glutamax (GIBCO), N2, B27 (Invitrogen), EGF (50 ng/ml; Chemicon), bFGF (50 ng/ml; Chemicon), IGF1 (50 ng/ml; Chemicon) and the composition provided herein. Media are changed every other day.
Lgr5-positive cells are quantified after 10 days (D10) in culture in multiple conditions. Cell colonies are dissociated into single cells using TrypLE (Gibco). The cells are then stained with propidium iodide (PI) and are analyzed using a flow cytometer for Lgr5-GFP expression. The number of GFP-positive cells and the percentage of GFP-positive cells are quantified.
For orientation: In flow cytometry, cells or beads pass a laser one at a time.

Chain of recombinant human GSK3β (P49841 whole entry): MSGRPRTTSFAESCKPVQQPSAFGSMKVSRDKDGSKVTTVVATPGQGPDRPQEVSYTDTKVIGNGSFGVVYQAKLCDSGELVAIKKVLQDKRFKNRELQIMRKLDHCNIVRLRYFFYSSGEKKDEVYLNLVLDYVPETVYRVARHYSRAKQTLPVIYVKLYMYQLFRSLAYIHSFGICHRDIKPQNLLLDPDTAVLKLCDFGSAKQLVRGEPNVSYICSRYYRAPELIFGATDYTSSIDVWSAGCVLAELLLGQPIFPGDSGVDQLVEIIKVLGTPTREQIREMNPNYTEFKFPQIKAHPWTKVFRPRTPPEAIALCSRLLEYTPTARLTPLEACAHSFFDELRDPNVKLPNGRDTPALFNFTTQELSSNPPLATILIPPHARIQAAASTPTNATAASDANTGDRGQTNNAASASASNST
Chain of recombinant human GSK3α (P49840 whole entry): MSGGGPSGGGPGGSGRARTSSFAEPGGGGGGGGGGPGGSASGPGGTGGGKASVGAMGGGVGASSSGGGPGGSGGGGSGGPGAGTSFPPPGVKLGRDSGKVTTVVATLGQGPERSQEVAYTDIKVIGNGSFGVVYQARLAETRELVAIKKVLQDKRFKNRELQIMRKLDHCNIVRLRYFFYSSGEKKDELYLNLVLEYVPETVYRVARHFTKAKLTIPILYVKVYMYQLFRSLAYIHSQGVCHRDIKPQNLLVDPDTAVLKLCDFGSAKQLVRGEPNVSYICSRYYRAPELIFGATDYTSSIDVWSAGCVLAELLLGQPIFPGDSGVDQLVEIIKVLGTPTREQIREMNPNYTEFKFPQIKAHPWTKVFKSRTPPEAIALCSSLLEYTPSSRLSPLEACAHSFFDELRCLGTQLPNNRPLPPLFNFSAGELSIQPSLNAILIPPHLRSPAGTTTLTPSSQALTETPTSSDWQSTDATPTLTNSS

As to `CN1CCC2(CCN(C(=O)N3CCn4cc(C5=C(c6cnc7ccccn67)C(=O)NC5=O)c5cc(F)cc(c54)C3)CC2)C1` [Compound I-41], the IC50 at recombinant human GSK3α lay in the range of 0.001 to 0.01 µM. Further, the IC50 on recombinant human GSK3β fell in the range of 0.001 to 0.01 µM. In the test on Lgr5-positive cells, the EC50 is more than 1 µM and the “% of Cells” value is recorded as “+++ (“+++” indicates greater than about 11%)”.
Take `O=C1NC(=O)C(c2cnc3ccccn23)=C1c1cn2c3c(cc(C(F)(F)F)cc13)CN(C(=O)N1CC(F)(F)OC(F)(F)C1)CC2` [Compound I-43]: at recombinant human GSK3α, the IC50 fell in the range of 0.001 to 0.01 µM. The IC50 on recombinant human GSK3β is 0.001 to 0.01 µM. In the test on Lgr5-positive cells, the EC50 is 0.1 to 1 µM and the “% of Cells” value is recorded as “+++ (“+++” indicates greater than about 11%)”.
As to `O=C1NC(=O)C(c2cnc3ccccn23)=C1c1cn2c3c(cc(C(F)(F)F)cc13)CN(C(=O)N1CCOCC(F)(F)C1)CC2` [Compound I-44], the IC50 on recombinant human GSK3α and at recombinant human GSK3β was 0.001 to 0.01 µM in each case. Also, the EC50 with Lgr5-positive cells was 0.1 to 1 µM. In addition, in the test with Lgr5-positive cells, the “% of Cells” value is reported as “+++ (“+++” indicates greater than about 11%)”.
Turning to `O=C1NC(=O)C(c2cnc3ccccn23)=C1c1cn2c3c(cc(F)c(F)c13)CN(C(=O)N1CCCCC1)CC2` [Compound I-48], the IC50 at recombinant human GSK3α is 0.001 to 0.01 µM. Further, the IC50 at recombinant human GSK3β fell in the range of 0.001 to 0.01 µM. Further, in the test with Lgr5-positive cells, the EC50 was in the range of 0.001 to 0.1 µM and the “% of Cells” value is given as “++ (“++” indicates about 6-10%)”.
